From patent US4002623A, “Anti-inflammatory 1-[3-(dialkylamino)propyl]-2-acylaminobenzimidazoles and 2-acylamino-3-[3-(dialkylamino)-propyl]imidazo[4,5-b]pyridines” (Pfizer Inc., priority 1974, dated 1977)
Read-outs that look alike come from different tables or passages of the source.

Test: adjuvant arthritis screen (Walz et al.), swelling of the non-injected left hind foot on Day 16
Assay type: in vivo, male inbred Lewis rats
Conditions: Rattus norvegicus, 384 h, daily day -1 through day 15, read-out: Activity Percent Inhibition; for inhibition in vivo at 20 mg/kg: 20 mg./kg. po
Source text: The adjuvant arthritis test described by Walz et al., Ann. Rheum. Dis., 30, 303 (1971) was selected as the method of choice for the determination of the extent of which the novel compounds of the present invention are therapeutically effective as anti-inflammatory agents. Adjuvant arthritis is a crippling deformity in rats resulting from diffuse connective tissue involvement. It is considered by some authorities to be the best available experimental animal model of human rheumatoid arthritis because of its strong clinical and pathological similarities to the human disease and because it can be effectively treated with known anti-arthritic drugs. In this test, lesions resembling those of human rheumatoid arthritis are induced by the injection of complete Freund's adjuvant into one hind leg of a rat. A vigorous inflammatory response occurs in the injected hind leg and reaches its greatest size in about four days. This primary response is followed by the development of a second inflammatory response, appearing about 12-16 days post-injection, that occurs in the uninjected hind leg. While the compounds of the invention are capable of inhibiting the degree of inflammation in both legs, the inhibition of swelling in the uninjected leg at 16 days is considered to be the more meaningful measure of antiarthritic activity.
The adjuvant arthritis screen as described by Walz et al. (Ann. Rheum. Dis., 30: 303 (1971), was used to evaluate the above prepared compounds.
The screen is conducted using male inbred Lewis rats weighing approximately 250 gm. The animals are dosed with drug beginning on day- 1 and continuing daily through day 15. On Day 0, the subplanter surface of the right hind paw is injected with 0.1cc of a 1% suspension of Mycobacterium butyricum (Freunds adjuvant) in Primol (Esso). The swelling of the non-injected left hind foot on Day 16, resulting from immune response to adjuvant, was determined for dosed animals and controls. The foot volume is measured by immersing the paw to the anatomical hairline into a mercury reservoir which is connected to a Statham pressure transducer and a recording device. The results are expressed as % inhibition calculated according to the following equation: [formula] The results obtained are as follows for [drawing 22] where Z is --N(CH3)2 and X is carbon: […]

Structure (SMILES) | inhibition in vivo at 33 mg/kg (33 mg./kg. ip) | further results
CN1CCN(CCCn2c(NC(=O)c3cccc(Cl)c3)nc3cc(C(F)(F)F)ccc32)CC1 [3-Chlorophenyl; CF3; H; drawing 24, 1-[3-(4-methyl-1-piperazinyl)propyl]-2-(3-chlorobenzamido)-5-trifluoromethylbenzimidazole] | 73% | inhibition in vivo at 20 mg/kg: 45%
Cc1ccc2c(c1)nc(NC(=O)c1cccc(Cl)c1)n2CCCN1CCN(C)CC1 [3-Chlorophenyl; CH3; H; drawing 24] | – | inhibition in vivo at 20 mg/kg: 29%
CN1CCN(CCCn2c(NC(=O)c3cccc(Cl)c3)nc3cc(Cl)c(Cl)cc32)CC1 [3-Chlorophenyl; Cl; Cl; drawing 24] | 66% | –
CN1CCN(CCCn2c(NC(=O)c3cccc(Cl)c3)nc3cc(Cl)ccc32)CC1 [3-Chlorophenyl; Cl; H; drawing 24] | 66% | inhibition in vivo at 10 mg/kg (10 mg./kg. po): -5%
Cc1ccc2nc(NC(=O)c3cccc(Cl)c3)n(CCCN3CCN(C)CC3)c2c1 [3-Chlorophenyl; H; CH3; drawing 24] | 66% | inhibition in vivo at 10 mg/kg (10 mg./kg. po): -5%
CN(C)CCCn1c(NC(=O)c2cccc(Cl)c2)nc2ccccc21 [3-Chlorophenyl; H; H; Z = N(CH3)2] | 33% | –
O=C(Nc1nc2ccccc2n1CCCN1CCOCC1)c1cccc(Cl)c1 [3-Chlorophenyl; H; H; drawing 23, 1-[3-(N-morpholino)propyl]-2-(3-chlorobenzamido)benzimidazole] | – | inhibition in vivo at 100 mg/kg (100 mg./kg. po): 32%
CN1CCN(CCCn2c(NC(=O)c3cccc(Cl)c3)nc3ccccc32)CC1 [3-Chlorophenyl; H; H; drawing 24] | 46% | –
CN1CCN(CCCn2c(NC(=O)c3cccc(Cl)c3)nc3cccnc32)CC1 [3-Chlorophenyl; H; H; drawing 25] | – | inhibition in vivo at 20 mg/kg: 26%
O=C(Nc1nc2ccccc2n1CCCN1CCCCC1)c1cccc(Cl)c1 [3-Chlorophenyl; H; H; drawing 26] | 34% | –
COc1ccc2c(c1)nc(NC(=O)c1cccc(Cl)c1)n2CCCN1CCN(C)CC1 [3-Chlorophenyl; OCH3; H; drawing 24] | 59% | inhibition in vivo at 10 mg/kg (10 mg./kg. po): -1%
CN1CCN(CCCn2c(NC(=O)c3cccc(Cl)c3)nc3cc(S(=O)(=O)N(C)C)ccc32)CC1 [3-Chlorophenyl; SO2 N(CH3)2; H; drawing 24, 1-[3-(4-methyl-1-piperazinyl)propyl]-2-(3-chlorobenzamido)-5-(N,N-dimethylsulfonamido)benzimidazole] | – | inhibition in vivo at 10 mg/kg (10 mg./kg. po): 35%; inhibition in vivo at 33 mg/kg (33 mg./kg. po): 54%
CN1CCN(CCCn2c(NC(=O)c3cccc(F)c3)nc3ccccc32)CC1 [3-Fluorophenyl; H; H; drawing 24] | 34% | –
O=C(Nc1nc2ccccc2n1CCCN1CCCCC1)c1cccc(F)c1 [3-Fluorophenyl; H; H; drawing 26] | 27% | –
COc1cccc(C(=O)Nc2nc3cc(C(F)(F)F)ccc3n2CCCN2CCN(C)CC2)c1 [3-Methoxyphenyl; CF3; H; drawing 24] | 46% | –
COc1cccc(C(=O)Nc2nc3cc(C)ccc3n2CCCN2CCN(C)CC2)c1 [3-Methoxyphenyl; CH3; H; drawing 24, 1-[3-(4-methyl-1-piperazinyl)propyl]-2-(3-methoxybenzamido)-5-methylbenzimidazole] | – | inhibition in vivo at 20 mg/kg: 37%
COc1cccc(C(=O)Nc2nc3cc(Cl)ccc3n2CCCN2CCN(C)CC2)c1 [3-Methoxyphenyl; Cl; H; drawing 24] | 17% | –
COc1cccc(C(=O)Nc2nc3ccc(C)cc3n2CCCN2CCN(C)CC2)c1 [3-Methoxyphenyl; H; CH3; drawing 24, 1-[3-(4-methyl-1-piperazinyl)propyl]-2-(3-methoxybenzamido)-6-methylbenzimidazole] | – | inhibition in vivo at 20 mg/kg: 44%
COc1cccc(C(=O)Nc2nc3ccccc3n2CCCN(C)C)c1 [3-Methoxyphenyl; H; H; Z = N(CH3)2] | 21% | –
COc1cccc(C(=O)Nc2nc3ccccc3n2CCCN2CCOCC2)c1 [3-Methoxyphenyl; H; H; drawing 23] | 29% | –
COc1cccc(C(=O)Nc2nc3ccccc3n2CCCN2CCN(C)CC2)c1 [3-Methoxyphenyl; H; H; drawing 24] | 26% | –

Structure (SMILES) | inhibition in vivo at 33 mg/kg (33 mg./kg. ip) | further results
COc1cccc(C(=O)Nc2nc3cccnc3n2CCCN2CCN(C)CC2)c1 [3-Methoxyphenyl; H; H; drawing 25] | – | inhibition in vivo at 20 mg/kg: 25%
COc1cccc(C(=O)Nc2nc3ccccc3n2CCCN2CCCCC2)c1 [3-Methoxyphenyl; H; H; drawing 26] | 52% | –
COc1cccc(C(=O)Nc2nc3cc(OC)ccc3n2CCCN2CCN(C)CC2)c1 [3-Methoxyphenyl; OCH3; H; drawing 24] | 43% | –
COc1cccc(C(=O)Nc2nc3cc(S(=O)(=O)N(C)C)ccc3n2CCCN2CCN(C)CC2)c1 [3-Methoxyphenyl; SO2 N(CH3)2; H; drawing 24] | – | inhibition in vivo at 20 mg/kg: 13%
Cc1cccc(C(=O)Nc2nc3ccccc3n2CCCN(C)C)c1 [3-Methylphenyl; H; H; Z = N(CH3)2] | 21% | –
Cc1cccc(C(=O)Nc2nc3ccccc3n2CCCN2CCOCC2)c1 [3-Methylphenyl; H; H; drawing 23] | 40% | –
Cc1cccc(C(=O)Nc2nc3ccccc3n2CCCN2CCN(C)CC2)c1 [3-Methylphenyl; H; H; drawing 24] | 39% | –
CN1CCN(CCCn2c(NC(=O)c3cccc(C(F)(F)F)c3)nc3cc(C(F)(F)F)ccc32)CC1 [3-Trifluoromethylphenyl; CF3; H; drawing 24, 1-[3-(4-methyl-1-piperazinyl)propyl]-2-(3-trifluoromethylbenzamido)-5-trifluoromethylbenzimidazole] | 83% | inhibition in vivo at 10 mg/kg (10 mg./kg. po): 46%
Cc1ccc2c(c1)nc(NC(=O)c1cccc(C(F)(F)F)c1)n2CCCN1CCN(C)CC1 [3-Trifluoromethylphenyl; CH3; H; drawing 24] | – | inhibition in vivo at 20 mg/kg: 27%
CN1CCN(CCCn2c(NC(=O)c3cccc(C(F)(F)F)c3)nc3cc(Cl)c(Cl)cc32)CC1 [3-Trifluoromethylphenyl; Cl; Cl; drawing 24] | 74% | –
CN1CCN(CCCn2c(NC(=O)c3cccc(C(F)(F)F)c3)nc3cc(Cl)ccc32)CC1 [3-Trifluoromethylphenyl; Cl; H; drawing 24] | 74% | inhibition in vivo at 10 mg/kg (10 mg./kg. po): 16%
Cc1ccc2nc(NC(=O)c3cccc(C(F)(F)F)c3)n(CCCN3CCN(C)CC3)c2c1 [3-Trifluoromethylphenyl; H; CH3; drawing 24] | – | inhibition in vivo at 20 mg/kg: 21%
O=C(Nc1nc2ccccc2n1CCCN1CCOCC1)c1cccc(C(F)(F)F)c1 [3-Trifluoromethylphenyl; H; H; drawing 23] | 0% | –
CN1CCN(CCCn2c(NC(=O)c3cccc(C(F)(F)F)c3)nc3ccccc32)CC1 [3-Trifluoromethylphenyl; H; H; drawing 24] | 79% | inhibition in vivo at 10 mg/kg (10 mg./kg. po): 18%
CN1CCN(CCCn2c(NC(=O)c3cccc(C(F)(F)F)c3)nc3cccnc32)CC1 [3-Trifluoromethylphenyl; H; H; drawing 25, 2-(3-trifluoromethylbenzamido)-3-[3-(4-methyl-1-piperazino)propyl]imidazo[4,5-b]pyridine] | – | inhibition in vivo at 20 mg/kg: 39%
O=C(Nc1nc2ccccc2n1CCCN1CCCCC1)c1cccc(C(F)(F)F)c1 [3-Trifluoromethylphenyl; H; H; drawing 26] | 30% | –
O=C(Nc1nc2ccccc2n1CCCN1CCN(Cc2ccccc2)CC1)c1cccc(C(F)(F)F)c1 [3-Trifluoromethylphenyl; H; H; drawing 27] | – | inhibition in vivo at 10 mg/kg (10 mg./kg. ip): 35%
O=C(Nc1nc2ccccc2n1CCCN1CCNCC1)c1cccc(C(F)(F)F)c1 [3-Trifluoromethylphenyl; H; H; drawing 28] | – | inhibition in vivo at 10 mg/kg (10 mg./kg. po): 13%
COc1ccc2c(c1)nc(NC(=O)c1cccc(C(F)(F)F)c1)n2CCCN1CCN(C)CC1 [3-Trifluoromethylphenyl; OCH3; H; drawing 24] | 57% | inhibition in vivo at 10 mg/kg (10 mg./kg. po): -5%
CN1CCN(CCCn2c(NC(=O)c3ccc(Cl)cc3)nc3cc(C(F)(F)F)ccc32)CC1 [4-Chlorophenyl; CF3; H; drawing 24] | 47% | –
Cc1cc2nc(NC(=O)c3ccc(Cl)cc3)n(CCCN3CCN(C)CC3)c2cc1C [4-Chlorophenyl; CH3; CH3; drawing 24] | – | inhibition in vivo at 20 mg/kg: 30%
